Assay results reported in PubChem BioAssay (NCI).
Where “and” joins values, the source holds several entries; their conditions need not be identical. Identical values can stand only once.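 Values below derive from 48-hour exposures of cells grown in 96-well plates, with endpoints linearly interpolated between the two concentrations bracketing the appropriate inhibition level. GI50 = concentration required for 50% inhibition of growth. TGI marks complete inhibition of growth.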 Where a SMILES comes first, the peptide text is derived from it. Side-chain parts run from the residue outwards. The star is where a group is joined. Cbz = O=C(OCc1ccccc1)*; Boc = CC(C)(C)OC(=O)*

Assays:
Assay in all cases: inhibition of tumour cell growth, NCI panel, 48 h
IGROV1 ovarian = test system: IGROV1 ovarian
LOX IMVI melanoma = test system: LOX IMVI melanoma
MDA-MB-435 = test system: MDA-MB-435
KM12 colon = test system: KM12 colon
HL-60(TB) leukemia = test system: HL-60(TB) leukemia
SK-MEL-28 melanoma = test system: SK-MEL-28 melanoma
SF-295 CNS = test system: SF-295 CNS
UACC-62 melanoma = test system: UACC-62 melanoma
SK-OV-3 ovarian = test system: SK-OV-3 ovarian

Row | SMILES | TGI (IGROV1 ovarian) | TGI (LOX IMVI melanoma) [µM] | TGI (MDA-MB-435) [µM] | TGI (KM12 colon) | TGI (HL-60(TB) leukemia) [µM] | TGI (SK-MEL-28 melanoma) [µM] | TGI (SF-295 CNS) [µM] | TGI (UACC-62 melanoma) | TGI (SK-OV-3 ovarian) [µM] | GI50 (IGROV1 ovarian) | GI50 (SK-MEL-28 melanoma)
1 | Cc1cc(NS(=O)(=O)c2ccc(NC(=O)c3cccc4c(NNc5ccc(S(N)(=O)=O)cc5)c5ccccc5nc34)cc2)no1 | > 100 µM | 86.1 | > 100 | > 100 µM | 76.5 | 89 | > 100 | > 100 µM | > 100 | – | –
2 | CNC(=O)C(NC(=O)[C@H](CC(C)C)NC(=O)[C@@H](S)CCN1C(=O)N(C)C(C)(C)C1=O)C(C)(C)C (stereo partly specified) | > 100 µM | – | > 100 | > 100 µM | > 100 | > 100 | > 100 | > 100 µM | > 100 | – | –
3 | O=C(O)[C@H]1NC[C@@H]2ON=C(Br)[C@@H]21 | > 100 µM | > 100 | > 100 | > 100 µM | > 100 | > 100 | > 100 | > 100 µM | > 100 | – | –
4 | CS(=O)(=O)OC1CCN(C2(c3cccc(O)c3)CCCCC2)CC1 | > 100 µM | 51.8 | > 100 | > 100 µM | 38.2 | > 100 | > 100 | > 100 µM | > 100 | – | –
5 | COC(=O)C1=C2Nc3ccccc3C23CCN2C(O)C4(CC5CC67CCOC6CCN6CCC8(c9cccc(OC)c9N(C4)C58O)C67)C4OCCC4(C1)C23 (stereo unspecified) | > 100 µM | > 100 | > 100 | > 100 µM | > 100 | > 100 | > 100 | > 100 µM | > 100 | – | –
6 | COc1ccc(-c2c(C(C)=O)c(-c3ccccc3)n(C3OC(COC(C)=O)C(OC(C)=O)C(OC(C)=O)C3OC(C)=O)c(=S)c2C#N)cc1O (stereo unspecified) | 35.6 µM and > 100 µM | > 100 | > 100 | 56.6 µM and > 100 µM | > 100 | > 100 | > 100 | 53.6 µM and > 100 µM | – | 12.4 µM and 38.2 µM | 27.2 µM and 65.9 µM
7 | CC(Nc1cc(=O)n(C)c(=O)[nH]1)c1ccccc1 (stereo unspecified) | > 100 µM | > 100 | > 100 | > 100 µM | > 100 | > 100 | > 100 | > 100 µM | – | – | –
8 | Cc1noc(C)c1N=Nc1ccc2nonc2c1N | > 100 µM | > 100 | > 100 | > 100 µM | > 100 | > 100 | > 100 | > 100 µM | > 100 | – | –
9 | Cc1ccc(N2C(=O)C(O)=C(C(=O)C(C)(C)C)C2c2ccc([N+](=O)[O-])cc2)cc1 (stereo unspecified) | 43.7 µM | 36.9 | 44.7 | 67.3 µM | 33.9 | 63.6 | 88.8 | 37.2 µM | 57.2 | – | –
10 | COC(=O)C(Cc1ccccc1)NC(=O)C(CCCN=C(N)N)NC(=O)OCc1ccccc1 (stereo unspecified) | > 100 µM | > 100 | > 100 | > 100 µM | > 100 | > 100 | > 100 | > 100 µM | > 100 | – | –
11 | Nc1ccc(S(=O)(=O)c2ccc(N=[N+]([O-])c3ccc(S(=O)(=O)c4ccc(N)cc4)cc3)cc2)cc1 | > 100 µM | > 100 | > 100 | > 100 µM | > 100 | > 100 | > 100 | > 100 µM | > 90.6 | – | –
12 | CC(C)CC(NC(=O)OCc1ccccc1)C(=O)NCCCCC(NC(=O)C(CCCCNC(=O)C(CC(C)C)NC(=O)OCc1ccccc1)NC(=O)C(CCCCNC(=O)C(CC(C)C)NC(=O)OCc1ccccc1)NC(=O)C(CCCCNC(=O)C(CC(C)C)NC(=O)OCc1ccccc1)NC(=O)OC(C)(C)C)C(=O)O (stereo unspecified) (Boc-K([Leu-Cbz])K([Leu-Cbz])K([Leu-Cbz])K([Leu-Cbz])-OH; configuration not given here) | > 25 µM | > 25 | > 25 | – | > 25 | > 25 | – | > 25 µM | – | – | –
13 | C[n+]1c(-c2ccc(/C=N/Nc3n[nH]c(=S)n3N/N=C/c3ccc(-c4cn5ccccc5[n+]4C)cc3)cc2)cn2ccccc21 | > 100 µM | – | > 100 | > 100 µM | > 100 | > 100 | > 100 | – | > 100 | – | –
14 | COc1cc(C2c3cc4c(cc3OC(N3CCOCC3)C2C)OCO4)cc(OC)c1OC (stereo unspecified) | 47.7 µM | > 53.3 | 0.549 | 14 µM | – | > 100 | 10.4 | 56.5 µM | 23.4 | – | –
15 | O=C1O[C@H](COC(=O)c2ccccc2)[C@@H](OC(=O)c2ccccc2)C=C1OC(=O)c1ccccc1 | 57.2 µM | 39.3 | 69.9 | > 100 µM | 27.1 | – | 34.8 | 49.6 µM | > 100 | – | –
16 | CCC(C)N1CN(c2ccccc2)C2(CCN(CCCC(=O)c3ccc(F)cc3)CC2)C1=O (stereo unspecified) | 18.7 µM | 10.8 | 27.5 | – | 46 | 32.1 | 15.8 | 32.9 µM | 21.5 | – | –

Row | SMILES | TGI (IGROV1 ovarian) | TGI (LOX IMVI melanoma) [µM] | TGI (MDA-MB-435) [µM] | TGI (KM12 colon) | TGI (HL-60(TB) leukemia) [µM] | TGI (SK-MEL-28 melanoma) [µM] | TGI (SF-295 CNS) [µM] | TGI (UACC-62 melanoma) | TGI (SK-OV-3 ovarian) [µM] | GI50 (IGROV1 ovarian) | GI50 (SK-MEL-28 melanoma)
17 | Cc1ccc(C(=O)/C=C/N2CCN(c3cccc(C(F)(F)F)c3)CC2)cc1 | 31.4 µM | – | 32.4 | 38.1 µM | 60.2 | 38.4 | 34 | 34.8 µM | 95.5 | – | –
18 | C[N+](C)(N)Cc1csc(-c2ccc(Cl)cc2)n1 | > 100 µM | > 100 | > 100 | > 100 µM | – | > 100 | > 100 | > 100 µM | > 100 | – | –
19 | CC(=N\N=C\c1ccccn1)/C(C)=N/N=C/c1ccccn1 | > 100 µM | > 100 | > 100 | > 100 µM | > 100 | > 100 | > 100 | – | > 100 | – | –
20 | CCC(c1nc2ccccc2c(=O)n1NC(=O)C(C)(C)C)C1(O)CCCCC1 (stereo unspecified) | > 100 µM | – | > 100 | > 100 µM | > 100 | > 100 | > 100 | > 100 µM | > 100 | – | –
21 | FC(F)(F)c1nc2cc(SSc3cc4nc(C(F)(F)F)[nH]c4cc3Cl)c(Cl)cc2[nH]1 | > 100 µM | > 100 | > 100 | – | > 100 | > 100 | > 100 | > 100 µM | > 100 | – | –
22 | COc1ccc2c(c1)-c1c(c3ccccc3n1CCN1CCOCC1)CC2 | 38.5 µM | 34.5 | > 100 | 26.7 µM | – | > 100 | 35.5 | 49.4 µM | > 100 | – | –
23 | S=C1NC2=C(COC/C2=C\c2ccccc2Cl)C(c2ccccc2Cl)N1 (stereo unspecified) | > 100 µM | 70.7 | > 100 | 28.6 µM | 34.4 | – | > 100 | > 100 µM | > 100 | – | –
24 | CC(C)(CO)NC(=O)c1cccc(C(=O)NC(C)(C)CO)c1Br | > 100 µM | > 100 | > 100 | > 100 µM | > 100 | > 100 | – | > 100 µM | – | – | –
25 | CCOc1ccc(-n2c(=O)n3c(Nc4ccc(Cl)cc4)nc4c(c(=O)n(C)c(=O)n4C)n3c2=O)cc1 | > 100 µM | 44.8 | 39.7 | 30.9 µM | 51.7 | 65.3 | > 100 | 46.3 µM | – | – | –
26 | COc1cc(C(c2cc(OC)c(OC)c(OC)c2)N2C(=O)CCC2C(=O)O)cc(OC)c1OC (stereo unspecified) | > 100 µM | – | > 100 | > 100 µM | > 100 | > 100 | > 100 | > 100 µM | > 100 | – | –
27 | CC(=O)O[C@@H]1CC2[C@@H](CCC3Cc4nc5c(nc4C[C@@]32C)CC2CC[C@@H]3C(CC[C@@]4(C)C3CC[C@@H]4C(C)CCCC(C)C)[C@@]2(C)C5)C2C[C@@H]3OC4(CCC(C)CO4)C(C)[C@@H]3[C@]21C (stereo partly specified) | > 100 µM | – | > 100 | > 100 µM | > 100 | > 100 | > 100 | 50.1 µM | > 100 | – | –
28 | COc1cc(C(=O)OC2CC(C)=CC[C@@]3(C)CC[C@](O)(C(C)C)C23)ccc1O (stereo partly specified) | 33.4 µM | 30.6 | > 100 | 29.9 µM | > 100 | 60.2 | 51.9 | – | 29.1 | – | –
29 | O=C(O)C1Cc2ccccc2OC1=O (stereo unspecified) | > 100 µM | – | > 100 | > 100 µM | – | > 100 | > 100 | > 100 µM | > 100 | – | –
30 | COc1cc(OC)c(NC2=NCCO2)cc1Cl | > 100 µM | 99.3 | 38.4 | 39.1 µM | > 100 | > 100 | > 100 | > 100 µM | – | – | –
31 | COc1ccc(C2c3c(-c4ccccc4)nn(-c4ccccc4)c3Oc3ncn(N)c(=N)c32)cc1OC (stereo unspecified) | 3.2 µM | – | 4.2 | 3.33 µM | > 100 | 4.29 | 4.34 | 3.72 µM | 21.6 | – | –
32 | CCN(CC)CCNc1ccc2nnn3c4ccc(OC(C)=O)cc4c(=O)c1c23 | 6.38 µM | 6.83 | 18 | 15.4 µM | – | 26.3 | 19.3 | 25.3 µM | 21 | – | –
